In ChEMBL document CHEMBL2424637, “Nucleophilic substitution reactions of 1,4-naphthoquinone and biologic properties of novel S-, S,S-, N-, and N,S-substituted 1,4-naphthoquinone derivatives” (2013):
In brackets after ≈: the same amount, converted by molar mass. Activity calls are given as the source filed them. The rule behind the calls is not given here.

Legend:
Format in all cases: functional
[1] = test system: Mycobacterium; experiment: Antibacterial activity against Mycobacterium luteum B-917 at 0.1% after 24 hrs by agar disk diffusion technique
[2] = test system: Staphylococcus aureus; experiment: Antibacterial activity against Staphylococcus aureus 209-P at 0.1% after 24 hrs by agar disk diffusion technique
[3] = test system: Escherichia coli; experiment: Antibacterial activity against Escherichia coli B-906 at 0.1% after 24 hrs by agar disk diffusion technique
[4] = test system: Yamadazyma tenuis; experiment: Antifungal activity against Candida tenuis VKM Y-70 at 0.5% after 48 to 72 hrs by agar disk diffusion technique
[5] = test system: Mycobacterium; experiment: Antibacterial activity against Mycobacterium luteum B-917 at 0.5% after 24 hrs by agar disk diffusion technique
[6] = test system: Yamadazyma tenuis; experiment: Antifungal activity against Candida tenuis VKM Y-70 at 0.1% after 48 to 72 hrs by agar disk diffusion technique
[7] = test system: Aspergillus niger; experiment: Antifungal activity against Aspergillus niger F-1119 at 0.5% after 48 to 72 hrs by agar disk diffusion technique
[8] = test system: Staphylococcus aureus; experiment: Antibacterial activity against Staphylococcus aureus 209-P at 0.5% after 24 hrs by agar disk diffusion technique
[9] = test system: Aspergillus niger; experiment: Antifungal activity against Aspergillus niger F-1119 after 24 to 72 hrs by serial dilution technique
[10] = test system: Aspergillus niger; experiment: Antifungal activity against Aspergillus niger F-1119 at 0.1% after 48 to 72 hrs by agar disk diffusion technique
[11] = test system: Staphylococcus aureus; experiment: Antibacterial activity against Staphylococcus aureus 209-P after 24 to 72 hrs by serial dilution technique
[12] = test system: Escherichia coli; experiment: Antibacterial activity against Escherichia coli B-906 at 0.5% after 24 hrs by agar disk diffusion technique
[13] = test system: Mycobacterium; experiment: Antibacterial activity against Mycobacterium luteum B-917 after 24 to 72 hrs by serial dilution technique
[14] = test system: Yamadazyma tenuis; experiment: Antifungal activity against Candida tenuis VKM Y-70 after 24 to 72 hrs by serial dilution technique
[15] = test system: Escherichia coli; experiment: Antibacterial activity against Escherichia coli B-906 after 24 to 72 hrs by serial dilution technique

| Compound | diameter of the inhibition zone (DIZ) [1] | diameter of the inhibition zone (DIZ) [2] | diameter of the inhibition zone (DIZ) [3] | diameter of the inhibition zone (DIZ) [4] | diameter of the inhibition zone (DIZ) [5] | diameter of the inhibition zone (DIZ) [6] | diameter of the inhibition zone (DIZ) [7] | diameter of the inhibition zone (DIZ) [8] | MIC [9] | diameter of the inhibition zone (DIZ) [10] | MIC [11] | diameter of the inhibition zone (DIZ) [12] | MIC [13] | MIC [14] | MIC [15] | inhibition zone (IZ) [6] |
| --- | --- | --- | --- | --- | --- | --- | --- | --- | --- | --- | --- | --- | --- | --- | --- | --- |
| CN[C@H](CC(C)C)C(=O)N[C@H]1C(=O)N[C@@H](CC(N)=O)C(=O)N[C@H]2C(=O)N[C@H]3C(=O)N[C@H](C(=O)N[C@H](C(=O)O)c4cc(O)cc(O)c4-c4cc3ccc4O)[C@H](O)c3ccc(c(Cl)c3)Oc3cc2cc(c3O[C@@H]2O[C@H](CO)[C@@H](O)[C@H](O)[C@H]2O[C@H]2C[C@](C)(N)[C@H](O)[C@H](C)O2)Oc2ccc(cc2Cl)[C@H]1O [VANCOMYCIN] | 18 mm | 15 mm | 14 mm | – | – | – | – | – | – | – | – | – | – | – | – | – |
| CSc1ccc(SC2=C(Sc3ccc(SC)cc3)C(=O)c3ccccc3C2=O)cc1 | 8.7 mm | 0 mm | 0 mm | 0 mm | 11 mm | 0 mm | 6 mm | 8.7 mm | 500 mg/L (≈ 1070 µM) | 0 mm | 250 mg/L (≈ 536 µM) | 0 mm | 125 mg/L (≈ 268 µM) | inactive | inactive | – |
| COC(=O)CCSC1=C(Sc2c(Cl)c(Cl)c(Cl)c(Cl)c2Cl)C(=O)c2ccccc2C1=O | 6 mm | 0 mm | 0 mm | 0 mm | 10.7 mm | 0 mm | 0 mm | 0 mm | inactive | 0 mm | 250 mg/L (≈ 449 µM) | 0 mm | 15.6 mg/L (≈ 28 µM) | 62.5 mg/L (≈ 112 µM) | inactive | – |
| CCCCOC(=O)CCSC1=C(Sc2c(Cl)c(Cl)c(Cl)c(Cl)c2Cl)C(=O)c2ccccc2C1=O | 0 mm | 0 mm | 0 mm | 0 mm | 0 mm | 0 mm | 6 mm | 0 mm | inactive | 0 mm | inactive | 0 mm | 125 mg/L (≈ 209 µM) | inactive | inactive | – |
| O=C1C(Sc2c(Cl)c(Cl)c(Cl)c(Cl)c2Cl)=C(N2CCCC2)C(=O)c2ccccc21 | 0 mm | 0 mm | 0 mm | 0 mm | 0 mm | 0 mm | 0 mm | 0 mm | inactive | 0 mm | inactive | 0 mm | inactive | inactive | inactive | – |
| CCOC1=C(N(CC)Cc2ccncc2)C(=O)c2ccccc2C1=O | 0 mm | 0 mm | 0 mm | 20 mm | 7.4 mm | 12.4 mm | 19 mm | 0 mm | 31.2 mg/L (≈ 92.7 µM) | 8 mm | 62.5 mg/L (≈ 186 µM) | 0 mm | 125 mg/L (≈ 372 µM) | 62.5 mg/L (≈ 186 µM) | inactive | – |
| CCCCOC(=O)CCSC1=C(Sc2ccc(O)cc2)C(=O)c2ccccc2C1=O | 0 mm | 0 mm | 0 mm | 0 mm | 6 mm | 0 mm | 0 mm | 0 mm | inactive | 0 mm | inactive | 0 mm | inactive | inactive | inactive | – |
| COC(=O)CCSC1=C(N2CCC3(CC2)OCCO3)C(=O)c2ccccc2C1=O | 0 mm | 0 mm | 0 mm | 0 mm | 12.6 mm | 0 mm | 8.4 mm | 0 mm | 500 mg/L (≈ 1200 µM) | 0 mm | inactive | 0 mm | 250 mg/L (≈ 599 µM) | inactive | inactive | – |
| O=C1C(Sc2c(Cl)c(Cl)c(Cl)c(Cl)c2Cl)=C(N2CCSCC2)C(=O)c2ccccc21 | 0 mm | 0 mm | 0 mm | 0 mm | 0 mm | 0 mm | 0 mm | 0 mm | inactive | 0 mm | inactive | 0 mm | inactive | 125 mg/L (≈ 232 µM) | inactive | – |
| CCCCOC(=O)CCSC1=C(SCCC(=O)OCCCC)C(=O)c2ccccc2C1=O | 0 mm | 0 mm | 0 mm | 0 mm | 0 mm | 0 mm | 6 mm | 0 mm | inactive | 0 mm | inactive | 0 mm | inactive | inactive | inactive | – |
| NYSTATIN | – | – | – | – | – | – | – | – | – | – | – | – | – | – | – | 19 mm |
| O=C1C(Sc2c(Cl)c(Cl)c(Cl)c(Cl)c2Cl)=C(N2CCOCC2)C(=O)c2ccccc21 | 0 mm | 0 mm | 0 mm | 0 mm | 0 mm | 0 mm | 0 mm | 0 mm | inactive | 0 mm | inactive | 0 mm | inactive | inactive | inactive | – |
| O=C1C(Sc2cc(Cl)ccc2Cl)=C(Sc2cc(Cl)ccc2Cl)C(=O)c2ccccc21 | 0 mm | 0 mm | 0 mm | 7 mm | 0 mm | 0 mm | 0 mm | 0 mm | inactive | 0 mm | inactive | 0 mm | inactive | 500 mg/L (≈ 976 µM) | inactive | – |
| CCCCOC(=O)CCSC1=C(N2CCC3(CC2)OCCO3)C(=O)c2ccccc2C1=O | 0 mm | 0 mm | 0 mm | 0 mm | 0 mm | 0 mm | 9 mm | 0 mm | 62.5 mg/L (≈ 136 µM) | 7 mm | inactive | 0 mm | 125 mg/L (≈ 272 µM) | inactive | inactive | – |
| O=C1C(Sc2c(Cl)c(Cl)c(Cl)c(Cl)c2Cl)=C(N2CCN(c3ccc(F)cc3)CC2)C(=O)c2ccccc21 | 0 mm | 0 mm | 0 mm | 0 mm | 0 mm | 0 mm | 0 mm | 0 mm | inactive | 0 mm | inactive | 0 mm | 125 mg/L (≈ 203 µM) | inactive | inactive | – |
